In patent US7354588B1, “Functional derivatives of ICAM-1 with altered ability to bind LFA-1 or HRV” (Dana Farber Cancer Institute, priority 1987, dated 2008):

Columns and labels:
[1] = tested on: JY cells (LFA-1 dependent aggregation); assay: Qualitative aggregation assay (microtiter plate), PMA-induced JY cell aggregation; type: cell-based, human
Experimental: In order to assess the extent of cellular adhesion, aggregation assays were employed. Cell lines used in such assays were washed two times with RPMI 1640 medium containing 5 mM Hepes buffer (Sigma Chemical Co., St. Louis) and resuspended to a concentration of 2×10^6 cells/ml. Added to flat-bottomed, 96-well microtiter plates (No. 3596; Costar, Cambridge, Mass.) were 50 μl of appropriate monoclonal antibody supernatant or 50 μl of complete medium with or without purified monoclonal antibodies, 50 μl of complete medium containing 200 ng/ml of the phorbol ester phorbol myristate acetate (PMA) and 100 μl of cells at a concentration of 2×10^6 cells/ml in complete medium. This yielded a final concentration of 50 ng/ml PMA and 2×10^5 cells/well. Cells were allowed to settle spontaneously, and the degree of aggregation was scored at various time points. […] In order to obtain a more quantitative estimate of cellular adhesion, reagents and cells were added to 5 ml polystyrene tubes in the same order as above. Tubes were placed in a rack on a gyratory shaker at 37° C. After 1 hour at approximately 200 rpm, 10 μl of the cell suspension was placed in a hemocytometer and the number of free cells was quantitated. Percent aggregation was determined by the following equation: […]
The qualitative aggregation assay described in Example 2 was performed using the Epstein-Barr transformed cell line JY. […]

[2] = tested on: human peripheral blood mononuclear cells (responder and irradiated stimulator cells); assay: Mixed lymphocyte reaction (MLR), ^3HT incorporation; type: cell-based; conditions: Table 19, R × S, R6-5-D6 8 ng/ml, Dex 50 ng/ml
ICAM-1-LFA-1 adhesion = ICAM-1-LFA-1 adhesion (Homo sapiens, UniProt P05107+P05362+P20701); conditions: peptides; cited from earlier work
[3] = tested on: ICAM-1 expression on human dermal fibroblasts; assay: ^125I goat anti-mouse IgG binding assay, anti-ICAM-1, dermal fibroblasts; type: cell-based
Experimental: (§1) The kinetics of interleukin 1 and gamma interferon effects on ICAM-1 expression on dermal fibroblasts were determined using the ^125I goat anti-mouse IgG binding assay of Dustin, M. L. et al. (J. Immunol. 137:245-254 (1986); which reference is herein incorporated by reference). To perform this binding assay, human dermal fibroblasts were grown in a 96-well microtiter plate to a density of 2−8×10^4 cells/well (0.32 cm^2). The cells were washed twice with RPMI 1640 medium supplemented as described in Example 1. The cells were additionally washed once with Hanks Balanced Salt Solution (HBSS), 10 mM HEPES, 0.05% NaN3 and 10% heat-inactivated fetal bovine serum. Washing with this binding buffer was done at 4° C. To each well was added 50 μl of the above-described binding buffer and 50 μl of the appropriate hybridoma supernatant with X63 and W6/32 as the negative and positive controls, respectively. After incubation for 30 minutes at 4° C., with gentle agitation, the wells were washed twice with binding buffer, and the second antibody ^125I-goat anti-mouse IgG, was added at 50 nCi in 100 μl. The ^125I-goat anti-mouse antibody was prepared by using Iodogen (Pierce) according to the method of Fraker, P. J. et al. (Biochem. Biophys. Res. Commun. 80:849 (1978)). After 30 minutes at 4° C., the wells were washed twice with 200 μl of binding buffer and the cell layer was solubilized by adding 100 μl of 0.1 N NaOH. This and a 100 μl wash were counted in a Beckman 5500 gamma counter. The specific counts per minute bound was calculated as [cpm with monoclonal antibody]-[cpm with X63]. All steps, including induction with specific reagents, were carried out in quadruplicate.

[4] = tested on: HLA-A,B,C expression on human dermal fibroblasts; assay: ^125I goat anti-mouse IgG binding assay, anti-HLA-A,B,C, dermal fibroblasts; type: cell-based
Experimental: as §1

[5] = tested on: ICAM-1 expression on human saphenous vein endothelial cells (HSVEC); assay: Radioimmune assay of ICAM-1 expression with ^125I RR1/1, HSVEC; type: cell-based
Experimental: (§2) In order to measure ICAM-1 expression, a radioimmune assay was developed. In this assay, purified RR1/1 was iodinated using iodogen to a specific activity of 10 μCi/μg. Endothelial cells were grown in 96 well plates and treated as described for each experiment. The plates were cooled at 4° C. by placing in a cold room for 0.5-1 hr, not immediately on ice. The monolayers were washed 3× with cold complete media and then incubated 30 m at 4° C. with ^125I RR1/1. The monolayers were then washed 3× with complete media. The bound 125, was released using 0.1 N NaOH and counted. The specific activity of the ^125I RR1/1 was adjusted using unlabeled RR1/1 to obtain a linear signal over the range of antigen densities encountered in this study. Non-specific binding was determined in the presence of a thousand fold excess of unlabeled RR1/1 and was subtracted from total binding to yield the specific binding.
(§3) Upregulation of ICAM-1 expression on HVEC and HSVEC-HUVEC or HSVEC were seeded into 96 well plates at 1:3 from a confluent monolayer and allowed to grow to confluence. Cells were then treated with the indicated materials or media for 16 hr and the RIA done as in methods. All points were done in quadruplicate.

[6] = tested on: ICAM-1 expression on human umbilical vein endothelial cells (HUVEC); assay: Radioimmune assay of ICAM-1 expression with ^125I RR1/1, HUVEC; type: cell-based
Experimental: as §2, §3

HRV14 = assay: Binding of [^35S]-Met labeled HRV14 to COS cells expressing ICAM-1 mutants; type: cell-based, human rhinovirus 14
LFA-1 = target: T1, LFA-1 (Homo sapiens, UniProt P05107+P20701); assay: Adherence of COS cells expressing ICAM-1 or ICAM-1 mutants to plastic-bound purified LFA-1; type: cell-based
T1 construct: endogenous in cells

LFA-1 on SKW-3 cells = target: T2, LFA-1 on SKW-3 cells (Homo sapiens, UniProt P05107+P20701); assay: SKW-3 cell binding to ICAM-1 bound to plastic (solid phase); type: cell-based; conditions: purified protein bound to 96-well plates
T2 construct: SKW-3 cells bearing LFA-1 on their surface; endogenous in cells; host or cells: SKW-3 T-lymphoma cells
Text: The truncated ICAM-1 secreted from transfected cells was purified by immunoaffinity chromatography with an ICAM-1 specific antibody (R6-5-D6) and tested for functional activity in a cell binding assay. […] These preparations of ICAM-1 were allowed to bind to the surfaces of plastic 96-well plates (Nunc), to produce ICAM-1 bound to a solid-phase. After washing out unbound material, approximately 75-80% and 83-88% of SKW-3 cells bearing LFA-1 on their surface bound specifically to the native and to the truncated forms of ICAM-1, respectively.

[7] = cells treated with IFN-γ (10 U/ml) (18 hr), alone or plus the inhibitor named (cycloheximide 20 μg/ml, actinomycin D 10 μM)
[8] = cells treated with IFN-γ (10 U/ml) (18 hr), alone or plus the inhibitor named
[9] = 16 hr, same concentrations as CPM
[10] = IL-1 beta 100 ng/ml, rTNF 50 ng/ml, Interferon-gamma 10,000 U/ml

T1 sequence (P20701 26-1170): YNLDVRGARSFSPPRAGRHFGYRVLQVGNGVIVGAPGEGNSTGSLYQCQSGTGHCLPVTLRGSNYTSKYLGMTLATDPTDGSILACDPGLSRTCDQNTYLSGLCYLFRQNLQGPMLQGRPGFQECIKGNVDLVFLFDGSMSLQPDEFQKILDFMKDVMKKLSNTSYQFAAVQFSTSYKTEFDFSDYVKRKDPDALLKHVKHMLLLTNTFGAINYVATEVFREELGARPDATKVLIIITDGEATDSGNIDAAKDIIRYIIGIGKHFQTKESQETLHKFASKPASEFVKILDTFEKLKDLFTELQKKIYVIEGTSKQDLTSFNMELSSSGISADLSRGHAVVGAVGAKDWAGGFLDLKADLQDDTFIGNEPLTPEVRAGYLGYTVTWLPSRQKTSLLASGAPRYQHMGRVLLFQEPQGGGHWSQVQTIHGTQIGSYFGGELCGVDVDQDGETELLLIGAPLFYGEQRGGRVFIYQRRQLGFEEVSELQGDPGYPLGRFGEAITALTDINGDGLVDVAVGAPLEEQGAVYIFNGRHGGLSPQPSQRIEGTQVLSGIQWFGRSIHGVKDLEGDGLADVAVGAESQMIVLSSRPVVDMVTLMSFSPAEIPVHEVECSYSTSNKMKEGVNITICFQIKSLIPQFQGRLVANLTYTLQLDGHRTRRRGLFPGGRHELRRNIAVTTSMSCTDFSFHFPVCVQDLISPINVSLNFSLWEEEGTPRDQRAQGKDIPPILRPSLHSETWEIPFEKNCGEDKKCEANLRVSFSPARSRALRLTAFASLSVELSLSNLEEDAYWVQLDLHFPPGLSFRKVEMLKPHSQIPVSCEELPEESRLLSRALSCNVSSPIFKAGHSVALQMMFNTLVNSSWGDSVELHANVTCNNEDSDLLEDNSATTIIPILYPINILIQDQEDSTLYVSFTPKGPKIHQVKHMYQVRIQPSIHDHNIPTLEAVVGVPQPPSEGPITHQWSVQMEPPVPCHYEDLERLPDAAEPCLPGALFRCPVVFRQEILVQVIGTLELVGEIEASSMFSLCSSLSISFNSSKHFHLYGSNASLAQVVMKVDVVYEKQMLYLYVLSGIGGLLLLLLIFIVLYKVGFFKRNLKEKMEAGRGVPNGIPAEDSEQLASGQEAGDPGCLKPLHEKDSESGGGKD
T1 sequence (P05107 23-769): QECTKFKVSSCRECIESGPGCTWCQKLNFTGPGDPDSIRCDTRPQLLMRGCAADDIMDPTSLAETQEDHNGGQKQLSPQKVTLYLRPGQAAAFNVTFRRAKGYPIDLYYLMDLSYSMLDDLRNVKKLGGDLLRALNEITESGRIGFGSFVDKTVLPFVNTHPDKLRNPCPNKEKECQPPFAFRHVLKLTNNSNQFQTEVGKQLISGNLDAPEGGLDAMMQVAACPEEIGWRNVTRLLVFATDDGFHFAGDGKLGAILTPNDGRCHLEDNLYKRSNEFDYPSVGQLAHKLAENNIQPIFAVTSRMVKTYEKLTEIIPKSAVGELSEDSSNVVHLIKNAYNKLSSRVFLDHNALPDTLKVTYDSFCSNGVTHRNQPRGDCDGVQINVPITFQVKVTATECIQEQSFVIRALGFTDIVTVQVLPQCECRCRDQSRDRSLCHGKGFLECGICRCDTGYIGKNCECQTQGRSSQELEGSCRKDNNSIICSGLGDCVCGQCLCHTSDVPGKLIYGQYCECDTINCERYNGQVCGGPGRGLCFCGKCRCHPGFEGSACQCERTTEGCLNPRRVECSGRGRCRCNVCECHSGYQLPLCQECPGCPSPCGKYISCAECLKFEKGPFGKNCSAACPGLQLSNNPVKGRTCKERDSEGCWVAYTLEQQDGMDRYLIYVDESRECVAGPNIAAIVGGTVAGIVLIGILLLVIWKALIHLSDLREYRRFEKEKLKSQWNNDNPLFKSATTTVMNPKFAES
ICAM-1-LFA-1 adhesion, sequence (P20701 26-1170, one chain of several): as the sequence (P20701 26-1170) above
ICAM-1-LFA-1 adhesion, sequence (P05107 23-769, one chain of several): as the sequence (P05107 23-769) above
T2 sequence (P20701 26-1170): as the sequence (P20701 26-1170) above
T2 sequence (P05107 23-769): as the sequence (P05107 23-769) above

**Q.** Which results are given for [Mg] [magnesium]?
**A.** lowest concentration supporting PMA-induced JY cell aggregation ([1]; 1.25 mM calcium ions added to the medium): 0.02 millimolar; lowest concentration supporting PMA-induced JY cell aggregation ([1]; medium free of calcium ions): 0.3 mM

**Q.** What does the source list for C[C@@H]1C[C@H]2[C@@H]3CCC4=CC(=O)C=C[C@]4(C)[C@@]3(F)[C@@H](O)C[C@]2(C)[C@@]1(O)C(=O)CO [Dex, Dexamethasone]?
**A.** inhibition at 0.05 µg/mL ([2]; Homo sapiens, PBMC): 59%; ^3HT Incorporation (CPM) ([2]; no inhibitor 34,199): 14,158 CPM

**Q.** Which “inhibition of ICAM-1-LFA-1 adhesion” value (ICAM-1-LFA-1 adhesion) does the source give for GRGDSP here?
**A.** Its value is “failure”.

**Q.** With cycloheximide as the molecule, how does the “^125I Goat Anti-Mouse IgG Specifically Bound (cpm), anti-ICAM-1” value [3, 7] read?
**A.** Its value is 1461 ± 59 cpm.

**Q.** What about the “^125I Goat Anti-Mouse IgG Specifically Bound (cpm), anti-ICAM-1” value ([3]; cells treated with IL 1 (10 U/ml) (4 hr), alone or plus the inhibitor named (cycloheximide 20 μg/ml, actinomycin D 10 μM, tunicamycin 2 μg/ml)) of the same molecule?
**A.** The value was 1619 ± 381 cpm.

**Q.** And the “effect on interleukin 1 and gamma interferon induced ICAM-1 expression on fibroblasts” value ([3]; cycloheximide 20 μg/ml, actinomycin D 10 μM)?
**A.** The value was “abolish the effects”.

**Q.** And the “^125I Goat Anti-Mouse IgG Specifically Bound (cpm), anti-ICAM-1” value ([3]; no cytokine, Control (4 hr) 1524 ± 140, cycloheximide 20 μg/ml, actinomycin D 10 μM, tunicamycin 2 μg/ml, mean ± SD)?
**A.** Its value is 1513 ± 210 cpm.

**Q.** What about the “^125I Goat Anti-Mouse IgG Specifically Bound (cpm), anti-HLA-A,B,C” value [4, 8] of the same molecule?
**A.** Its value is 10675 ± 800 cpm.

**Q.** And the “^125I Goat Anti-Mouse IgG Specifically Bound (cpm), anti-HLA-A,B,C” value ([4]; cells treated with IL 1 (10 U/ml) (4 hr), alone or plus the inhibitor named)?
**A.** Its value is 12676 ± 446 cpm.

**Q.** What about the “^125I Goat Anti-Mouse IgG Specifically Bound (cpm), anti-HLA-A,B,C” value ([4]; no cytokine, Control (4 hr) 11928 ± 600, cycloheximide 20 μg/ml, actinomycin D 10 μM, tunicamycin 2 μg/ml, mean ± SD) of the same molecule?
**A.** Its value is 10678 ± 471 cpm.

**Q.** With GRGESP as the molecule, how does the “inhibition of ICAM-1-LFA-1 adhesion” value (ICAM-1-LFA-1 adhesion) read?
**A.** The value was “failure”.

**Q.** Which results are given for “rIFN gamma: recombinant gamma interferon”?
**A.** ^125I Specifically bound (CPM), HSVEC ([5]; 16 hr, rIL-1 beta 100 ng/ml, rTNF alpha 50 ng/ml, LPS 10 μg/ml, rIFN gamma 10 ng/ml, control 1132 ± 31): 4002 ± 664 CPM; fold of control ICAM-1 expression, HSVEC [5, 9]: 3.5x; increase of ICAM-1 expression on HSVEC [5, 10]: 3.5 fold; ^125I Goat Anti-Mouse IgG Specifically Bound (cpm), anti-ICAM-1 [3, 7]: 4659 ± 109 cpm; half-life for ICAM-1 induction ([3]; human dermal fibroblasts, 10 U/ml): 3.75 h; ^125I Specifically bound (CPM), HUVEC ([6]; 16 hr, rIL-1 beta 100 ng/ml, rIL-1 alpha 50 ng/ml, rTNF alpha 50 ng/ml, LPS 10 μg/ml, rIFN gamma 10 ng/ml, polymyxin B 10 μg/ml, control 603 ± 11): 3120 ± 308 CPM; fold of control ICAM-1 expression, HUVEC [6, 9]: 5.2x; increase of ICAM-1 expression on HUVEC [6, 10]: 5.2 fold; ^125I Goat Anti-Mouse IgG Specifically Bound (cpm), anti-HLA-A,B,C [4, 8]: 23675 ± 500 cpm

B1: Native ICAM-1: native (wild-type) Intercellular Adhesion Molecule-1, purified or expressed in COS cells (protein, UniProt P05362 28-532, looked up)
Intercellular adhesion …: QTSVSPSKVILPRGGSVLVTCSTSCDQPKLLGIETPLPKKELLLPGNNRKVYELSNVQEDSQPMCYSNCPDGQSTAKTFLTVYWTPERVELAPLPSWQPVGKNLTLRCQVEGGAPRANLTVVLLRGEKELKREPAVGEPAEVTTTVLVRRDHHGANFSCRTELDLRPQGLELFENTSAPYQLQTFVLPATPPQLVSPRVLEVDTQGTVVCSLDGLFPVSEAQVHLALGDQRLNPTVTYGNDSFSAKASVSVTAEDEGTQRLTCAVILGNQSQETLQTVTIYSFPAPNVILTKPEVSEGTEVTVKCEAHPRAKVTLNGVPAQPLGPRAQLLLKATPEDNGRSFSCSATLEVAGQLIHKNQTRELRVLYGPRLDERDCPGNWTWPENSQQTPMCQAWGNPLPELKCLKDGTFPLPIGESVTVTRDLEGTYLCRARSTQGEVTRKVTVNVLSPRYEIVIITVVAAAVIMGTAGLSTYLYNRQRKIKKYRLQQAQKGTPMKPNTQATPP
**Q.** For B1, which “Percent of [^35S] methionine-labeled HRV-14 which bound to COS cells, mean” value (HRV14) is on record?
**A.** Its value is 21%.

**Q.** What about the “Percent of [^35S] methionine-labeled HRV-14 which bound to COS cells, range over experiments” value (HRV14; mock-transfected 0-4%) of the same molecule?
**A.** The value was 6-43%.

**Q.** What about the “Percent of ICAM-1 expressing COS cells that bound to LFA-1, mean” value (LFA-1) of the same molecule?
**A.** The value was 33%.

**Q.** And the “Percent of ICAM-1 expressing COS cells that bound to LFA-1, range over experiments” value (LFA-1; mock-transfected 0-1%)?
**A.** The value was 11-63%.

**Q.** And the “% of Cells Expressing ICAM-1 that Bind LFA-1 in the Presence of RR1/1” value (LFA-1; transfected Cos cells, purified LFA-1 on plastic)?
**A.** The value was 0%.

**Q.** And the “SKW-3 cells bound specifically to plastic-bound ICAM-1” value (LFA-1 on SKW-3 cells)?
**A.** The value was 75-80%.
